Data from US20100113268A1, “SYNERGISTIC ACTIVE COMPOUND COMBINATIONS” (priority 2006, published 2010).

Tested on: Meloidogyne incognita
Assay: Meloidogyne incognita test (MELGIN), gall formation on lettuce roots in soil
Type: in vivo
Settings: single active compound, 100% = no galls, 0% = galls as untreated control
Method: Meloidogyne incognita Test (MELGIN)
To produce a suitable preparation of active compound, 1 part by weight of active compound is mixed with the stated amounts of solvent and emulsifier, and the concentrate is diluted with water to the desired concentration.
Vessels are filled with soil, solution of active compound, Meloidogyne incognita egg/larvae suspension and lettuce seeds. The lettuce seeds germinate and plants develop. On the roots, galls are formed.
After the desired period of time, the nematicidal action is determined in % by the formation of galls. 100% means that no galls have been found; 0% means that the number of galls on the treated plants corresponds to that of the untreated control.

Row | SMILES | Kill in % after 21 d (0.125 ppm) [%] | Kill in % after 21 d (2 ppm) [%]
1 | CNC(=O)O/N=C(\SC)C(=O)N(C)C [Oxamyl, oxamyl] | 24 | 
2 | O=[N+]([O-])/N=C1\NCCN1Cc1ccc(Cl)nc1 [Imidacloprid] |  | 0
3 | CN/C(=N\[N+](=O)[O-])NCc1cnc(Cl)s1 [Clothianidin] |  | 0
